Data reported in patent US5633231A, “Valine-containing pseudopeptides with antiviral activity” (Bayer Aktiengesellschaft, priority 1993, dated 1997).

Key:
HCMV (Davis) = test: Anti-HCMV (Davis) activity: inhibition of the cytopathogenic effect in HELF cell cultures, 96-well screening test; type: cell-based, human cytomegalovirus
Description: (§1) The anti-HCMV effect was determined in a screening test system in 96-well microtitre plates with the aid of human embryonic lung fibroblast (HELF) cell cultures. The influence of the substances on the spread of the cytopathogenic effect was compared with that of the reference substance ganciclovir ([…]® sodium), a clinically approved anti-HCMV chemotherapeutic agent. The substances, dissolved (50 mM) in DMSO (dimethyl sulphoxide), are investigated on microtitre plates (96-well) at final concentrations of 1000-0.00048 μM (micromolar) in double determinations (4 substances/plate). In this test, both the toxic and cytostatic effects of the substances are recorded. […] After staining with neutral red and fixing with formalin/methanol, the plates are evaluated using a projection microscope (plaque viewer).

[1] = test system: human embryonic lung fibroblast (HELF) cell cultures; test: Anti-cellular (toxic and cytostatic) effect on HELF cells in the same screening test; type: cell-based; conditions: 6 days at 37° C.
Description: as §1

Nc1nc(O)c2ncn(COC(CO)CO)c2n1 [Cymevene^R Na, ganciclovir]
SI (selectivity index) (HCMV (Davis); HELF versus HCMV, definition given only as a drawing): 32-64
IC50 (HCMV (Davis); Human betaherpesvirus 5, 144 h, read-out: IC50 (μM) (HCMV) = concentration which elicits 50% inhibition of the CPE, HCMV (Davis)-infected HELF cells, 6 days, neutral red staining): 2 to 4 µM
CIC50 (μM) (HELF) = highest concentration at which no obvious anticellular effect is evident [1]: 125 µM
